According to ChEMBL document CHEMBL1201861, “Genomics of Drug Sensitity in Cancer screening data, Wellcome Trust Sanger Institute”:
pIC50: −log10 of the molar value.

Assays:
Assay in all cases: cells
K5 = type: functional, cell-based, Homo sapiens; conditions: Homo sapiens, K5
Description: SANGER: Inhibition of human K5 cell growth in a cell viability assay.

CAS-1 = type: functional, cell-based, Homo sapiens; conditions: Homo sapiens, CAS-1;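 note: growth inhibition of CAS-1 cells, measured with a cell viability assay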
Description: SANGER: Inhibition of human CAS-1 cell growth in a cell viability assay.

NB6 = type: functional, cell-based, Homo sapiens; conditions: Homo sapiens, NB6;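 note: growth inhibition of NB6 cells, read out by a cell viability assay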
Description: SANGER: Inhibition of human NB6 cell growth in a cell viability assay.

HCE-T = type: functional, cell-based, Homo sapiens; conditions: Homo sapiens, HCE-T;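 note: cell viability assay read-out, reporting inhibition of HCE-T cell growth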
Description: SANGER: Inhibition of human HCE-T cell growth in a cell viability assay.

NMC-G1 = type: functional, cell-based, Homo sapiens; conditions: Homo sapiens, NMC-G1;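 note: growth inhibition of the NMC-G1 cell line, measured with a cell viability read-out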
Description: SANGER: Inhibition of human NMC-G1 cell growth in a cell viability assay.

KS-1 = type: functional, cell-based; conditions: Homo sapiens;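 note: growth inhibition of KS-1 cells, read out with a cell viability assay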
Description: SANGER: Inhibition of human KS-1 cell growth in a cell viability assay.

KGN = type: functional, cell-based, Homo sapiens; conditions: Homo sapiens, KGN;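 note: growth inhibition of KGN cells, read out with a cell viability assay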
Description: SANGER: Inhibition of human KGN cell growth in a cell viability assay.

MMAC-SF = type: functional, cell-based; conditions: Homo sapiens;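 note: growth inhibition of human MMAC-SF cells, read out with a cell viability assay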
HCE-4 = type: functional, cell-based; conditions: Homo sapiens;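 note: cell viability assay measuring inhibition of growth in the human HCE-4 cell line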
Description: SANGER: Inhibition of human HCE-4 cell growth in a cell viability assay.

ES8 = type: functional, cell-based, Homo sapiens; conditions: Homo sapiens, ES8;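 note: growth inhibition of human ES8 cells, read out with a cell viability assay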
Description: SANGER: Inhibition of human ES8 cell growth in a cell viability assay.

JVM-3 = type: functional, cell-based, Homo sapiens; conditions: Homo sapiens, JVM-3;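 note: growth inhibition of human JVM-3 cells, read out with a cell viability assay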
Description: SANGER: Inhibition of human JVM-3 cell growth in a cell viability assay.

LU-134-A = type: functional, cell-based, Homo sapiens; conditions: Homo sapiens, LU-134-A
Description: SANGER: Inhibition of human LU-134-A cell growth in a cell viability assay.

697 = type: functional, cell-based, Homo sapiens; conditions: Homo sapiens
MS-1 = type: functional, cell-based, Homo sapiens; conditions: Homo sapiens, MS-1;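 note: growth inhibition of MS-1 cells, read out by cell viability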
Description: SANGER: Inhibition of human MS-1 cell growth in a cell viability assay.

GI-ME-N = type: functional, cell-based, Homo sapiens; conditions: Homo sapiens, GI-ME-N;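 note: growth inhibition of human GI-ME-N cells, read out with a cell viability assay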
Description: SANGER: Inhibition of human GI-ME-N cell growth in a cell viability assay.

LNCaP-Clone-FGC = type: functional, cell-based, Homo sapiens; conditions: Homo sapiens, LNCaP-Clone-FGC
Description: SANGER: Inhibition of human LNCaP-Clone-FGC cell growth in a cell viability assay.

A101D = type: functional, cell-based, Homo sapiens; conditions: Homo sapiens, A101D;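 note: growth inhibition of the cell line, measured with a viability assay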
Description: SANGER: Inhibition of human A101D cell growth in a cell viability assay.

TE-9 = type: functional, cell-based, Homo sapiens; conditions: Homo sapiens, TE-9;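 note: cell growth inhibition, measured with a cell viability readout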
Description: SANGER: Inhibition of human TE-9 cell growth in a cell viability assay.

LU-139 = type: functional, cell-based, Homo sapiens; conditions: Homo sapiens, LU-139
Description: SANGER: Inhibition of human LU-139 cell growth in a cell viability assay.

NCI-H69 = type: functional, cell-based, Homo sapiens; conditions: Homo sapiens, NCI-H69;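 note: growth inhibition of the cell line, read out with a cell viability assay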
Description: SANGER: Inhibition of human NCI-H69 cell growth in a cell viability assay.

SH-4 = type: functional, cell-based; conditions: Homo sapiens;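 note: growth inhibition of SH-4 cells, read out with a cell viability assay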
Description: SANGER: Inhibition of human SH-4 cell growth in a cell viability assay.

MN-60 = type: functional, cell-based, Homo sapiens; conditions: Homo sapiens, MN-60;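 note: growth inhibition of the MN-60 cell line, determined with a cell viability assay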
Description: SANGER: Inhibition of human MN-60 cell growth in a cell viability assay.

LC-2-ad = type: functional, cell-based, Homo sapiens; conditions: Homo sapiens, LC-2-ad;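 note: growth inhibition of human LC-2-ad cells, read out with a cell viability assay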
Description: SANGER: Inhibition of human LC-2-ad cell growth in a cell viability assay.

8-MG-BA = type: functional, cell-based, Homo sapiens; conditions: Homo sapiens, 8-MG-BA;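 note: growth inhibition of 8-MG-BA cells, read out with a cell viability assay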
Description: SANGER: Inhibition of human 8-MG-BA cell growth in a cell viability assay.

VA-ES-BJ = type: functional, cell-based, Homo sapiens; conditions: Homo sapiens, VA-ES-BJ;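 note: growth inhibition of the VA-ES-BJ cell line, read out by a cell viability assay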
Description: SANGER: Inhibition of human VA-ES-BJ cell growth in a cell viability assay.

MZ7-mel = type: functional, cell-based, Homo sapiens; conditions: Homo sapiens, MZ7-mel;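 note: growth inhibition of human MZ7-mel cells, measured by a cell viability assay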
Description: SANGER: Inhibition of human MZ7-mel cell growth in a cell viability assay.

SW684 = type: functional, cell-based, Homo sapiens; conditions: Homo sapiens, SW684; read-out: IC50;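 note: growth inhibition of human SW684 cells, measured by a cell viability assay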
KNS-42 = type: functional, cell-based; conditions: Homo sapiens;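 note: growth inhibition of KNS-42 cells, read out with a cell viability assay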
Description: SANGER: Inhibition of human KNS-42 cell growth in a cell viability assay.

U-266 = type: functional, cell-based, Homo sapiens; conditions: Homo sapiens, U-266
NCI-H1838 = type: functional, cell-based, Homo sapiens; conditions: Homo sapiens, NCI-H1838;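 note: growth inhibition of NCI-H1838 cells, determined with a cell viability readout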
Description: SANGER: Inhibition of human NCI-H1838 cell growth in a cell viability assay.

GR-ST = type: functional, cell-based, Homo sapiens; conditions: Homo sapiens, GR-ST
Description: SANGER: Inhibition of human GR-ST cell growth in a cell viability assay.

NB13 = type: functional, cell-based, Homo sapiens; conditions: Homo sapiens, NB13;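 note: cell viability readout measuring growth inhibition of human NB13 cells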
Description: SANGER: Inhibition of human NB13 cell growth in a cell viability assay.

SJSA-1 = type: functional, cell-based, Homo sapiens; conditions: Homo sapiens, SJSA-1;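 note: growth inhibition of human SJSA-1 cells, read out through a cell viability measurement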
Description: SANGER: Inhibition of human SJSA-1 cell growth in a cell viability assay.

MHH-PREB-1 = type: functional, cell-based, Homo sapiens; conditions: Homo sapiens, MHH-PREB-1;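 note: cell viability assay measuring inhibition of proliferation of human MHH-PREB-1 cells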
Description: SANGER: Inhibition of human MHH-PREB-1 cell growth in a cell viability assay.

GB-1 = type: functional, cell-based, Homo sapiens; conditions: Homo sapiens, GB-1;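 note: growth of GB-1 cells judged by a viability assay, IC50 marks the concentration inhibiting growth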
Description: SANGER: Inhibition of human GB-1 cell growth in a cell viability assay.

ONS-76 = type: functional, cell-based, Homo sapiens; conditions: Homo sapiens, ONS-76;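 note: growth inhibition of human ONS-76 cells, read out with a cell viability assay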
Description: SANGER: Inhibition of human ONS-76 cell growth in a cell viability assay.

CTV-1 = type: functional, cell-based, Homo sapiens; conditions: Homo sapiens, CTV-1;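 note: growth inhibition of the cell line, read out with a cell viability assay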
Description: SANGER: Inhibition of human CTV-1 cell growth in a cell viability assay.

KY821 = type: functional, cell-based, Homo sapiens; conditions: Homo sapiens, KY821;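 note: growth inhibition of human KY821 cells, read out by a cell viability assay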
Description: SANGER: Inhibition of human KY821 cell growth in a cell viability assay.

LAMA-84 = type: functional, cell-based, Homo sapiens; conditions: Homo sapiens, LAMA-84;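 note: growth inhibition of LAMA-84 cells, read out with a cell viability assay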
SF-126 = type: functional, cell-based, Homo sapiens; conditions: Homo sapiens, SF-126;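 note: growth inhibition of human SF126 cells, read out with a cell viability assay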
HD-MY-Z = type: functional, cell-based, Homo sapiens; conditions: Homo sapiens, HD-MY-Z;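 note: growth inhibition of HD-MY-Z cells, read out with a cell viability assay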
Description: SANGER: Inhibition of human HD-MY-Z cell growth in a cell viability assay.

NOS-1 = type: functional, cell-based, Homo sapiens; conditions: Homo sapiens, NOS-1;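 note: growth inhibition of the human NOS-1 cell line, read out with a cell viability assay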
Description: SANGER: Inhibition of human NOS-1 cell growth in a cell viability assay.

SK-MEL-2 = type: functional, cell-based, Homo sapiens; conditions: Homo sapiens, SK-MEL-2;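 note: growth inhibition of human SK-MEL-2 cells measured with a cell viability assay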
Description: SANGER: Inhibition of human SK-MEL-2 cell growth in a cell viability assay.

D283 Med = type: functional, cell-based, Homo sapiens; conditions: Homo sapiens, D283 Med
Description: SANGER: Inhibition of human D-283MED cell growth in a cell viability assay.

KG-1 = type: functional, cell-based, Homo sapiens; conditions: Homo sapiens, KG-1;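 note: growth inhibition of KG-1 cells, read out by a cell viability assay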
Description: SANGER: Inhibition of human KG-1 cell growth in a cell viability assay.

TK-10 = type: functional, cell-based, Homo sapiens; conditions: Homo sapiens, TK-10;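 note: growth inhibition of TK-10 cells, read out in a cell viability assay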
Description: SANGER: Inhibition of human TK10 cell growth in a cell viability assay.

EOL1 = type: functional, cell-based, Homo sapiens; conditions: Homo sapiens, EOL1;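 note: growth inhibition of EoL-1 cells, read out by a cell viability assay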
CCRF-CEM = type: functional, cell-based, Homo sapiens; conditions: Homo sapiens, CCRF-CEM;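 note: inhibition of CCRF-CEM cell growth, measured by a cell viability assay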
Description: SANGER: Inhibition of human CCRF-CEM cell growth in a cell viability assay.

NCI-H1092 = type: functional, cell-based, Homo sapiens; conditions: Homo sapiens, NCI-H1092;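 note: cell growth inhibition measured with a cell viability assay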
Description: SANGER: Inhibition of human NCI-H1092 cell growth in a cell viability assay.

NCI-H526 = type: functional, cell-based, Homo sapiens; conditions: Homo sapiens, NCI-H526;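 note: growth inhibition of the human NCI-H526 cell line, measured by a cell viability assay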
Description: SANGER: Inhibition of human NCI-H526 cell growth in a cell viability assay.

KURAMOCHI = type: functional, cell-based, Homo sapiens; conditions: Homo sapiens, KURAMOCHI;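 note: growth inhibition of KURAMOCHI cells, read out with a cell viability assay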
Description: SANGER: Inhibition of human KURAMOCHI cell growth in a cell viability assay.

Measured: pIC50

C[C@@H](Oc1cc(-c2cnn(C3CCNCC3)c2)cnc1N)c1c(Cl)ccc(F)c1Cl [CRIZOTINIB]
5.86: LAMA-84
6.22: CTV-1
< 5.70: all other assays above

Cc1ccc(-n2nc(C(C)(C)C)cc2NC(=O)Nc2ccc(OCCN3CCOCC3)c3ccccc23)cc1 [DORAMAPIMOD]
6.46: EOL1
< 5.00: all other assays above

CN(NC(=O)CC(=O)NN(C)C(=S)c1ccccc1)C(=S)c1ccccc1 [ELESCLOMOL]
7.64: NB13
7.23: HCE-4
7.90: MZ7-mel
8.23: HD-MY-Z
7.86: KS-1
7.39: D283 Med
7.37: TK-10
7.80: U-266
7.69: NMC-G1
7.91: SJSA-1
8.17: GB-1
7.28: LAMA-84
6.74: NCI-H1838
7.05: NCI-H1092
7.85: MN-60
7.56: LC-2-ad
8.11: LNCaP-Clone-FGC
8.71: SF-126
7.94: A101D | MHH-PREB-1
6.85: NB6
8.15: K5
7.07: MMAC-SF
7.99: ONS-76
8.21: 697
7.40: KG-1
6.92: LU-139
7.14: SK-MEL-2
8.35: HCE-T
8.88: ES8
8.04: 8-MG-BA
> 9.11: NOS-1
8.12: VA-ES-BJ
6.78: MS-1
6.93: CAS-1 | TE-9
7.21: EOL1
< 6.70: all other assays above
